The results in this text go back to patent publication US20230096028A1, “BICYCLIC HETEROCYCLYL COMPOUNDS AND USES THEREOF” (Revolution Medicines, Inc., priority 2019, published 2023).

Test [1] addresses T1, SOS1 catalytic domain (residues 564-1049) (Homo sapiens, UniProt Q07889).
T1 sequence (Q07889 564-1049): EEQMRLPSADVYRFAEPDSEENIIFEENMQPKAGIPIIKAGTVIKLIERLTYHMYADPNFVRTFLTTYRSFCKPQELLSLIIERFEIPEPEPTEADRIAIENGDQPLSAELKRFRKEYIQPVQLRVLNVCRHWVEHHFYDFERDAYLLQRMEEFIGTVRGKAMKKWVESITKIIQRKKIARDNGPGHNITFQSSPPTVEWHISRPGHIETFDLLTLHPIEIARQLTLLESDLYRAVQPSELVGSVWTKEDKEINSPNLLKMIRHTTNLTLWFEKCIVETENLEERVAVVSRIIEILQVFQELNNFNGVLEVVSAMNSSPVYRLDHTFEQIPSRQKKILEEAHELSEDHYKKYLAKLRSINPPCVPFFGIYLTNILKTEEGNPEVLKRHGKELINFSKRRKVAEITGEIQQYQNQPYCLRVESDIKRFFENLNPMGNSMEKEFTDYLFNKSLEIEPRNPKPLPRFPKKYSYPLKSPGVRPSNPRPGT
The test is described as follows: Mode of Action Assay: inhibition of SOS1 nucleotide exchange activity (SOS1 TR-FRET IC50 Assay). For orientation: TR-FRET usually uses a lanthanide donor and a delayed reading to cut background.

The target of test [2] is T1, SOS1 catalytic domain (residues 564-1049). The test is described as follows: Potency Assay: binding affinity to SOS1 using Surface Plasmon Resonance (SPR). More on the design: SOS1 catalytic domain (residues 564-1049) immobilized on a sensor chip. Conditions: immobilized SOS1 catalytic domain (residues 564-1049), read-out: SOS1 SPR Equilibrium Kd. As for the experimental part: Data was reported as equilibrium dissociation constant (Kd) values.
Using a GE Biacore 8K SPR instrument, avi-tagged SOS1 catalytic domain protein was immobilized to a level of approximately 6000 response units (RU) on a streptavidin-coated SPR sensor chip in assay buffer containing 0.01 M HEPES, 0.15 M NaCl and 0.05% v/v Surfactant P20. […] For each test compound, a separate 0 μM sample was generated for use during subsequent double reference subtraction. Serially for each test compound, individual dilution samples were flowed over the immobilized SOS1 protein at a flow rate of 50 μL/minute to monitor the association with SOS1. Dissociation of bound test compound from the SOS1 protein was immediately monitored by flowing assay buffer over the sensor surface and monitoring the decrease in binding signal back to the baseline level seen in the absence of compound. This was repeated for all compound dilutions in each series. The binding level response for each test compound concentration was noted immediately prior to the end of the association phase, and a secondary plot generated showing binding response level versus test compound concentration generated for each compound dilution series.

Some results are limits rather than exact numbers.

One may read the IC50 as the concentration needed to halve the response being measured. Read a high IC50 as lower potency. For orientation: Kd means a measure of binding affinity in units of concentration. `C[C@@H](Nc1nc(Cl)nc2c1CN(C(=O)N1CCC(C)(O)CC1)C2)c1cc(N)cc(C(F)(F)F)c1` [Example 162] showed a half-inhibitory concentration (IC50) in test [1] of under 1000 nM. Also, the dissociation constant (Kd) in test [2] was under 400 nM.

Molecule `Cc1nc2c(c(N[C@H](C)c3cc(N)cc(C(F)(F)F)c3)n1)CN(C(=O)N1CCOCC1)CCC2` [Example 136, N-[(1R)-1-[3-amino-5-(trifluoromethyl)phenyl]ethyl]-2-methyl-6-(morpholine-4-carbonyl)-5H,6H,-7H,8H,9H-pyrimido[5,4-c]azepin-4-amine] displayed an IC50 in test [1] of over 1000 nM. In addition, the Kd in test [2] was over 400 nM.

As to `C[C@@H](Nc1nc(Cl)nc2c1CN(C(=O)N1CCOc3ccncc31)C2)c1cc(N)cc(C(F)(F)F)c1` [Example 141], the IC50 in test [1] was under 1000 nM. The Kd in test [2] is under 400 nM.

In test [1], `C[C@@H](Nc1nc(Cl)nc2c1CN(C(=O)c1ncc[nH]1)C2)c1cc(N)cc(C(F)(F)F)c1` [Example 95] returned an IC50 of over 1000 nM. In addition, the Kd in test [2] was over 400 nM.

As to `CCOc1nc2c(c(N[C@H](C)c3cc(N)cc(C(F)(F)F)c3)n1)CN(C(=O)N1CCOCC1)C2` [Example 124, N-[(1R)-1-[3-amino-5-(trifluoromethyl)phenyl]ethyl]-2-ethoxy-6-(morpholine-4-carbonyl)-5H,6H,7H-pyrrolo[3,4-d]pyrimidin-4-amine], the 50% inhibitory concentration (IC50) in test [1] was under 1000 nM. The Kd in test [2] is under 400 nM.

In turn, `C[C@@H](Nc1nc(Cl)nc2c1CN(C(=O)N1CCc3cccnc31)C2)c1cccc(C(F)(F)F)c1` [Example 369] yielded an IC50 in test [1] of under 1000 nM. The Kd in test [2] is under 400 nM.

For the molecule `CC(Nc1nc(Cl)nc2c1CN(C(=O)N1CCOCC1)C2)c1cc(N)cc(C(F)(F)F)c1F` (stereo not drawn) [Example 461, (4-((1-(5-amino-2-fluoro-3-(trifluoromethyl)phenyl)ethyl)amino)-2-chloro-5,7-dihydro-6H-pyrrolo[3,4-d]pyrimidin-6-yl)(morpholino)methanone], the concentration for half-maximal inhibition (IC50) in test [1] was under 1000 nM. For the same molecule, the Kd in test [2] was under 400 nM.

As to `Cc1nc2c(c(N[C@H](C)c3cc(N)cc(C(F)(F)F)c3)n1)CN(c1ccc(Br)cn1)CC2` [Example 42, N-[(1R)-1-[3-amino-5-(trifluoromethyl)phenyl]ethyl]-6-(5-bromo-2-pyridyl)-2-methyl-7,8-dihydro-5H-pyrido[4,3-d]pyrimidin-4-amine], the IC50 in test [1] is over 1000 nM. The Kd in test [2] is over 400 nM.

`C[C@@H](Nc1nc(Cl)nc2c1CN(S(=O)(=O)c1cn[nH]c1)C2)c1cc(N)cc(C(F)(F)F)c1` [Example 173] had an IC50 in test [1] of over 1000 nM. Also, in test [2], the Kd is over 400 nM.

Molecule `C[C@@H](Nc1nc(Cl)nc2c1CN(C(=O)c1cnn(C3CCOCC3)c1)C2)c1cc(N)cc(C(F)(F)F)c1` [Example 96] displayed an IC50 in test [1] of over 1000 nM. In addition, the Kd in test [2] is under 400 nM.

In test [1], `C[C@@H](Nc1nc(Cl)nc2c1CN(C(=O)[C@H]1CC[C@@H](O)CC1)C2)c1cc(N)cc(C(F)(F)F)c1` [Example 99] registered an IC50 of under 1000 nM. Besides, in test [2], the Kd is over 400 nM.

`COC1CN([C@@H]2CCc3nc(Cl)nc(N[C@H](C)c4cc(N)cc(C(F)(F)F)c4)c3C2)C1` [Example 431] returned a concentration for half-maximal inhibition (IC50) in test [1] of under 1000 nM. In addition, in test [2], the Kd is under 400 nM.

In test [1], `C[C@@H]1CN(C(=O)N2Cc3nc(Cl)nc(N[C@H](C)c4cc(N)cc(C(F)(F)F)c4)c3C2)C[C@H](C)O1` [Example 163] had an IC50 of under 1000 nM. The Kd in test [2] was under 400 nM.

In the case of `C[C@@H](Nc1nc(Cl)nc2c1CN(C(=O)c1cnccn1)C2)c1cc(N)cc(C(F)(F)F)c1` [Example 66], the IC50 in test [1] is over 1000 nM. The Kd in test [2] was over 400 nM.

As to `COc1cccc(C(=O)N2Cc3nc(Cl)nc(N[C@H](C)c4cc(N)cc(C(F)(F)F)c4)c3C2)n1` [Example 67], in test [1], the IC50 is over 1000 nM. Further, the Kd in test [2] was over 400 nM.
